How the values were obtained:
[1] = Tumor pharmacokinetic study, 30 mg/kg IV QDx6; type: in vivo, mice
protein kinases [2] = target: protein kinases (Homo sapiens, UniProt Q13464); assay: Kinase inhibition, percentage of activity at 0.5 μM, standardized radiometric kinase assays; type: biochemical; settings: ROCK-I(h);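 note: each kinase tested separately, with activity read as 33P-labelled substrate protein captured on filters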
protein kinases [3] = target: protein kinases (Homo sapiens, UniProt O15111); assay: as above; type: biochemical; settings: IKKα(h)
protein kinases [4] = target: protein kinases (Homo sapiens, UniProt P50613); assay: as above; type: biochemical; settings: CDK7/cyclinH/MAT1(h)
Chain of protein kinases (Homo sapiens, UniProt P50613) (P50613 2-346 limits assumed): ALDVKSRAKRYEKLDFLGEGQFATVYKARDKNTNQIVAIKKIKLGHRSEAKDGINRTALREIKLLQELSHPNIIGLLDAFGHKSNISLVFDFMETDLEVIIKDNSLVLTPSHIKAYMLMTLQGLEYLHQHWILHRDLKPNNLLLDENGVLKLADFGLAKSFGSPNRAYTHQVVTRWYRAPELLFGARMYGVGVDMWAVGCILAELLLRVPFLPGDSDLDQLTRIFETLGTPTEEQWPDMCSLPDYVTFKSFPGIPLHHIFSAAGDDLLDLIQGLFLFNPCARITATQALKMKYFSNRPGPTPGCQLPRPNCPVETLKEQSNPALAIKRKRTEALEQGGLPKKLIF

protein kinases [5] = target: protein kinases (Homo sapiens, UniProt P04049); assay: as above; type: biochemical; settings: c-RAF(h)
protein kinases [6] = target: protein kinases (Homo sapiens, UniProt Q04912); assay: as above; type: biochemical; settings: Ron(h)
protein kinases [7] = target: protein kinases (Homo sapiens, UniProt Q05397); assay: as above; type: biochemical; settings: FAK(h)
Chain of protein kinases (Homo sapiens, UniProt Q05397) (Q05397 2-1052 limits assumed): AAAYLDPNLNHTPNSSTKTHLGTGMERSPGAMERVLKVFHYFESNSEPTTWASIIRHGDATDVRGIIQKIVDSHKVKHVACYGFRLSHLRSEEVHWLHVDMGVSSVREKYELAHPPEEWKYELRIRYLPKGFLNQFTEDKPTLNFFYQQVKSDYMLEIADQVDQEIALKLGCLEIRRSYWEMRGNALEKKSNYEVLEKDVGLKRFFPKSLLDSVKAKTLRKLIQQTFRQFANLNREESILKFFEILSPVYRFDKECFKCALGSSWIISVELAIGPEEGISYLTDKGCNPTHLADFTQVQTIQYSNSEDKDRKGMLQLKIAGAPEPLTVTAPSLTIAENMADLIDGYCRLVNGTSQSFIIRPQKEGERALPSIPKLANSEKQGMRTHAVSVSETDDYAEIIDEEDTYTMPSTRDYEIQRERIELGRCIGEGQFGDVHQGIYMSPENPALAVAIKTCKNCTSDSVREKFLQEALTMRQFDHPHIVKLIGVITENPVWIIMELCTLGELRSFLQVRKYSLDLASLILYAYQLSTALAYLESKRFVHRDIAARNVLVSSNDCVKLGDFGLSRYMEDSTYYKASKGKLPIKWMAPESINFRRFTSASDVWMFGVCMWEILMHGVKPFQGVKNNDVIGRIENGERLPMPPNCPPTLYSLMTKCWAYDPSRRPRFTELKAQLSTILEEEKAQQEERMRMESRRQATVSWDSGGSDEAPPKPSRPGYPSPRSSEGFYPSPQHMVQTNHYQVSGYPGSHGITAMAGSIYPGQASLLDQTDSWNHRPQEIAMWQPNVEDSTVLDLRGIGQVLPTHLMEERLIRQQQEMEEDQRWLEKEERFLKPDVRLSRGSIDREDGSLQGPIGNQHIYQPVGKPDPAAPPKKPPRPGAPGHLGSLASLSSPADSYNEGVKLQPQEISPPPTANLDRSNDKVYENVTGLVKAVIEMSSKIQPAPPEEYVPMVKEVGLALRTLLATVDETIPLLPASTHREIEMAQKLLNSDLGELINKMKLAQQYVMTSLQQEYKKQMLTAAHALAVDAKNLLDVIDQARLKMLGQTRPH

protein kinases [8] = target: protein kinases (Homo sapiens, UniProt P07948); assay: as above; type: biochemical; settings: Lyn(h)
Chain of protein kinases (Homo sapiens, UniProt P07948) (P07948 2-512 limits assumed): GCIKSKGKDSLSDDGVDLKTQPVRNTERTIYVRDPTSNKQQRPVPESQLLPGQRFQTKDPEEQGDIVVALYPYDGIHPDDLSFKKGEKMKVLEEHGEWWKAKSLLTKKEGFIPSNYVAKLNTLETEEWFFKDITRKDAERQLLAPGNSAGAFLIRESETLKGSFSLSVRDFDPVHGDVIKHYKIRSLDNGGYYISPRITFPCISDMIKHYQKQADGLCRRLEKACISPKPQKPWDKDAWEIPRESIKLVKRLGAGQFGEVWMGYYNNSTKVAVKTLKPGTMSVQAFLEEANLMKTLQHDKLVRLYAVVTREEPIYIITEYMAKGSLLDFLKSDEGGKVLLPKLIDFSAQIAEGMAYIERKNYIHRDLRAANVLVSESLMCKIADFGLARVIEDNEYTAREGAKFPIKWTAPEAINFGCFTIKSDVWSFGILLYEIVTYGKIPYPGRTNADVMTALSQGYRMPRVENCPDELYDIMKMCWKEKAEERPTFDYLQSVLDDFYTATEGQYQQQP

protein kinases [9] = target: protein kinases (Homo sapiens, UniProt Q06418); assay: as above; type: biochemical; settings: Rse(h)
Chain of protein kinases (Homo sapiens, UniProt Q06418) (Q06418 41-890 limits assumed): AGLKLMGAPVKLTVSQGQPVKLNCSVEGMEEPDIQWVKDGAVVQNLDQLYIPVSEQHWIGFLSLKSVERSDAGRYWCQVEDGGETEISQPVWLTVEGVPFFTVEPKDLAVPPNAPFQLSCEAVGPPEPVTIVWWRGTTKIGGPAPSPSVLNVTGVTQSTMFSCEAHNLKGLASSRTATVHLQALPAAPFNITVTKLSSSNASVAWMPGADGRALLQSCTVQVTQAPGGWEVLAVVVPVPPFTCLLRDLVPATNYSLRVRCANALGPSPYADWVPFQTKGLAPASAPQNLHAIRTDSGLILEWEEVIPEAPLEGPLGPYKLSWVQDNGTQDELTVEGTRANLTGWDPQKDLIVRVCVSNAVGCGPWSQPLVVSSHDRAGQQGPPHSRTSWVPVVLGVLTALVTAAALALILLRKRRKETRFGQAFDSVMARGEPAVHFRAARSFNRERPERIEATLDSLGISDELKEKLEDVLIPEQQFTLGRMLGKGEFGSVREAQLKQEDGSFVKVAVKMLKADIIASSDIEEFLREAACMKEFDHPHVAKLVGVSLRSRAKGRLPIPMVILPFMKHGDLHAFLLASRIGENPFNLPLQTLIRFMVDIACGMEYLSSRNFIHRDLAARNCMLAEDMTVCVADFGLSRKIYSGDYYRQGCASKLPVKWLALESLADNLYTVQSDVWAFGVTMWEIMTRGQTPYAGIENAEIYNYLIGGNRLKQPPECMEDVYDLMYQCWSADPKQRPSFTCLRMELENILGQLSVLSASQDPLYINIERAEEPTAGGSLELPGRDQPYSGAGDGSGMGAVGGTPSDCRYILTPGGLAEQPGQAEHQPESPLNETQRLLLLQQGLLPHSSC

protein kinases [10] = target: protein kinases (Homo sapiens, UniProt Q96SB4); assay: as above; type: biochemical; settings: SRPK1(h)
protein kinases [11] = target: protein kinases (Homo sapiens, UniProt P36888); assay: as above; type: biochemical; settings: Flt3(h)
protein kinases [12] = target: protein kinases (Homo sapiens, UniProt Q12866); assay: as above; type: biochemical; settings: Mer(h)
Chain of protein kinases (Homo sapiens, UniProt Q12866) (Q12866 21-999 limits assumed): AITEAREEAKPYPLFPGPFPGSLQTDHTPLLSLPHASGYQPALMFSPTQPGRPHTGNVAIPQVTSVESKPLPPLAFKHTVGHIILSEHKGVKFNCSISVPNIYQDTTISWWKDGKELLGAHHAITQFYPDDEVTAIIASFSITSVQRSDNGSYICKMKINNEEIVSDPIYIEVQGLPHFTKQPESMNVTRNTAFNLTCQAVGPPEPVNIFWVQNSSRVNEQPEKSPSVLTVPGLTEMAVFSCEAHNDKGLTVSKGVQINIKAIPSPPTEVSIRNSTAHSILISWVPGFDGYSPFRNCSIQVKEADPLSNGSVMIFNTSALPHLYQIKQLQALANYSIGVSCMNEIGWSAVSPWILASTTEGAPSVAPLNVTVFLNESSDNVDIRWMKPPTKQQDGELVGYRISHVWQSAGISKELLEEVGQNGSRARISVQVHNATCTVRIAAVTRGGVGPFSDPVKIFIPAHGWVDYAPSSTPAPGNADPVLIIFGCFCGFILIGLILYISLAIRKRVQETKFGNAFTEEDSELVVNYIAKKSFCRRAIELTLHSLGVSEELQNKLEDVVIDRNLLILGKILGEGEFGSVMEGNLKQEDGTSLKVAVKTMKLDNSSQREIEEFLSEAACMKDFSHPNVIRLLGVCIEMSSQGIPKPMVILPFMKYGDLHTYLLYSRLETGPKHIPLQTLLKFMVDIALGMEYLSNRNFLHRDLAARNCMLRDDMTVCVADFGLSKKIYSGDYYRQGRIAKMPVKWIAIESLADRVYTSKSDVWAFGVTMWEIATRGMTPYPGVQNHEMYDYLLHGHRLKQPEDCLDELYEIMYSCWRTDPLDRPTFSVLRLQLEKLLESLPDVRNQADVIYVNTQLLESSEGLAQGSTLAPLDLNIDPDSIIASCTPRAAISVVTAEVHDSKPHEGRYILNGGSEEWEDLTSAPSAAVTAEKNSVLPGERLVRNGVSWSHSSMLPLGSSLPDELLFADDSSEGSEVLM

protein kinases [13] = target: protein kinases (Homo sapiens, UniProt Q15303); assay: as above; type: biochemical; settings: ErbB4(h)
protein kinases [14] = target: protein kinases (Homo sapiens, UniProt Q14680); assay: as above; type: biochemical; settings: MELK(h)
protein kinases [15] = target: protein kinases (Homo sapiens, UniProt P54760); assay: as above; type: biochemical; settings: EphB4(h)
protein kinases [16] = target: protein kinases (Homo sapiens, UniProt Q15418); assay: as above; type: biochemical; settings: Rsk1(h)
protein kinases [17] = target: protein kinases (Homo sapiens, UniProt P80192); assay: as above; type: biochemical; settings: MLK1(h)
protein kinases [18] = target: protein kinases (Homo sapiens, UniProt Q14012); assay: as above; type: biochemical; settings: CaMKI(h)
protein kinases [19] = target: protein kinases (Homo sapiens, UniProt Q9UM73); assay: as above; type: biochemical; settings: ALK(h)
protein kinases [20] = target: protein kinases (Homo sapiens, UniProt P23443); assay: as above; type: biochemical; settings: p70S6K(h)
protein kinases [21] = target: protein kinases (Homo sapiens, UniProt Q9H4B4); assay: as above; type: biochemical; settings: Plk3(h)
protein kinases [22] = target: protein kinases (Homo sapiens, UniProt Q9UEE5); assay: as above; type: biochemical; settings: DRAK1(h)
protein kinases [23] = target: protein kinases (Homo sapiens, UniProt P51955); assay: as above; type: biochemical; settings: NEK2(h)
protein kinases [24] = target: protein kinases (Homo sapiens, UniProt P07333); assay: as above; type: biochemical; settings: Fms(h)
Chain of protein kinases (Homo sapiens, UniProt P07333) (P07333 20-972 limits assumed): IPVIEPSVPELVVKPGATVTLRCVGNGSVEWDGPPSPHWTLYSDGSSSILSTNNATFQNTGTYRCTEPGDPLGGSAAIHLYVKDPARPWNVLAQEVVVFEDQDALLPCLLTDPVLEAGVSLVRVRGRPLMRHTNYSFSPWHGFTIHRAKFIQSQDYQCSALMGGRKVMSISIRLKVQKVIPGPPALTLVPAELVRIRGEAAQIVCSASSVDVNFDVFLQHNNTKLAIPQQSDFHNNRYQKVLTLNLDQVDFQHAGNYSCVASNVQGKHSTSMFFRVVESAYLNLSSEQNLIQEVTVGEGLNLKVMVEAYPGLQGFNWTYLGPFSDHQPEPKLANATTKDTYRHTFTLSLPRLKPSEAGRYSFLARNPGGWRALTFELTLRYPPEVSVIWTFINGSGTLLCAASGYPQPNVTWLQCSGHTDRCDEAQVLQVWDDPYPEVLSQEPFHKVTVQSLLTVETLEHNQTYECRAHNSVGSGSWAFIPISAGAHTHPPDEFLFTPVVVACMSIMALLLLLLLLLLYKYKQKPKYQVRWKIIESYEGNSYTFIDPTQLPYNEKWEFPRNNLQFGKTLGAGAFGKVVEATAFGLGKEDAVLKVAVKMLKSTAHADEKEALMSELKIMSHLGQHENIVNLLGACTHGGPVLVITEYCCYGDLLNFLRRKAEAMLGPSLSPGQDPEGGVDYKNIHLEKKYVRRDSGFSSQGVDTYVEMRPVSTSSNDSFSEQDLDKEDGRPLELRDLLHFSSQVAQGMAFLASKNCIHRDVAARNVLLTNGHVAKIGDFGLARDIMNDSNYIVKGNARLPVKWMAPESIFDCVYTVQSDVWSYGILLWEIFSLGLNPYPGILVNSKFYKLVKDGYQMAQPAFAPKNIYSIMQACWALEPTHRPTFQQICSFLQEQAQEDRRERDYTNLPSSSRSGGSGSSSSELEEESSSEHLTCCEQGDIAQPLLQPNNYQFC

protein kinases [25] = target: protein kinases (Homo sapiens, UniProt P43403); assay: as above; type: biochemical; settings: ZAP-70(h)
protein kinases [26] = target: protein kinases (Homo sapiens, UniProt P51813); assay: as above; type: biochemical; settings: Bmx(h)
protein kinases [27] = target: protein kinases (Homo sapiens, UniProt O43318); assay: as above; type: biochemical; settings: TAK1(h)
protein kinases [28] = target: protein kinases (Homo sapiens, UniProt P10721); assay: as above; type: biochemical; settings: cKit(h)

## C#Cc1cccc(Nc2nc3cc(C(=O)O)ccc3c3cncnc23)c1 [compound A2]
[1]
  Half life change on repeated dosing: about doubles
  Minimum concentration increase after six days: 4-5 times higher
  Time to steady state: about three days
Protein kinases [2]
  activity at 0.5 µM: 97%
Protein kinases [3]
  activity at 0.5 µM: 101%
Protein kinases [4]
  activity at 0.5 µM: 77%
Protein kinases [5]
  activity at 0.5 µM: 69%
Protein kinases [6]
  activity at 0.5 µM: 106%
Protein kinases [7]
  activity at 0.5 µM: 97%
Protein kinases [8]
  activity at 0.5 µM: 109%
Protein kinases [9]
  activity at 0.5 µM: 109%
Protein kinases [10]
  activity at 0.5 µM: 66%
Protein kinases [11]
  activity at 0.5 µM: 42%
Protein kinases [12]
  activity at 0.5 µM: 46%
Protein kinases [13]
  activity at 0.5 µM: 126%
Protein kinases [14]
  activity at 0.5 µM: 49%
Protein kinases [15]
  activity at 0.5 µM: 144%
Protein kinases [16]
  activity at 0.5 µM: 78%
Protein kinases [17]
  activity at 0.5 µM: 80%
Protein kinases [18]
  activity at 0.5 µM: 104%
Protein kinases [19]
  activity at 0.5 µM: 112%
Protein kinases [20]
  activity at 0.5 µM: 80%
Protein kinases [21]
  activity at 0.5 µM: 106%
Protein kinases [22]
  activity at 0.5 µM: 62%
Protein kinases [23]
  activity at 0.5 µM: 77%
Protein kinases [24]
  activity at 0.5 µM: 174%
Protein kinases [25]
  activity at 0.5 µM: 118%
Protein kinases [26]
  activity at 0.5 µM: 118%
Protein kinases [27]
  activity at 0.5 µM: 101%
Protein kinases [28]
  activity at 0.5 µM: 114%
